Like-named read-outs stand apart in the source and are kept apart here. Where a SMILES comes first, the peptide text is derived from it. Where no end group is shown, it is not given here. [ ]: non-standard residue; d: D form. Aib = CC(C)(N)C(=O)O
Assays:
[1] = test system: rats; assay: Protracted action: time course of plasma 11-OHCS level after i.m. or i.v. injection; format: in vivo; conditions: rats 100-120 g, 5 μg/rat intramuscularly or intravenously
Experimental: The protracted action of the present polypeptides, e.g., [Aib^1,Lys^17,18,19 ]--ACTH(1-19)--NH2, was studied using rats weighing 100-120 g. Synthetic human ACTH, Cortrosyn--Z^R (zinc complex suspension of ACTH(1-24)--OH)and [Gly^1 ]--ACTH(1-18)--NH2 were used for comparison. The petides were intramuscularly or intravenously injected into rats at a dose of 5 μg/rat, and then the production of 11-hydroxycorticosteroids (11-OHCS) was determined. Time course of 11-OHCS level in the plasma when the peptides were administered intramuscularly and intravenously is shown in FIG. 2, respectively. […] Cortrosyn-Z is the only ACTH preparation which has been used for therapeutical purpose, though it has rather strong melanocyte stimulating activity (c.f. Table 1). […] In FIG. 2, Cortrosyn-Z (suspension of a zinc complex of ACTH(1-24)--OH) is not shown, because the suspension cannot be used through intravenous route.

[2] = test system: melanocyte
Experimental: The in vivo melanocyte-stimulating activity was determined according to the method of A. Tanaka described in Endocrinol.

[3] = test system: hypophysectomized rat
Experimental: The adrenal-stimulating activity by the intramuscular administration to hypophysectomized rat was also determined, where a peptide preparation was injected into the thigh muscle and a blood sample was collected from the abdominal aorta 30 minutes after the injection. Throughout the experiment, the USP Corticotropin Reference Standard was used as a standard and the production of 11-hydroxycorticosteroids was determined by the fluorophotometric method of Peterson [J. Biol. Chem. 225 25 (1975)].

[4] = test system: hypophysectomized rat; remark: listed apart in the source
[5] = test system: rats; conditions: i.m. for 2 days
Experimental: The effect on adrenal growth and thymus involution was determined in the following manner: peptides were intramuscularly injected into rats weighing 100-150 g at a dose of 20μg and 100 μg/rat/day for 2 days, respectively. The rats were then submitted to autopsy 24 hours after the last injection, and then the adrenal and thymus were weighed respectively.

| Compound | Protracted adrenal-stimulating action (time course of plasma 11-OHCS level) [1] | Melanocyte-stimulating activity in vivo (b), relative potency [2] | Adrenal-stimulating activity i.m. (relative potency) ([3]; rat, in vivo) | Adrenal-stimulating activity i.v. (relative potency) ([4]; rat, in vivo, iv) | Protracted adrenal-stimulating action (time course of plasma 11-OHCS level) ([1]; Lys^17,18,19 ]--ACTH(1-19)--NH2) | effects on adrenal growth and thymus involution (in words) [5] | Adrenal-stimulating activity i.m. (relative potency) ([3]; hypophysectomized rat, thigh muscle injection, blood sample 30 minutes after injection, USP Corticotropin Reference Standard as standard) | Adrenal-stimulating activity i.v. (relative potency) ([4]; hypophysectomized rat, femoral vein injection, blood sample 30 minutes after injection, USP Corticotropin Reference Standard as standard) |
| --- | --- | --- | --- | --- | --- | --- | --- | --- |
| CSCC[C@H](NC(=O)[C@H](CO)NC(=O)[C@H](Cc1ccc(O)cc1)NC(=O)C(C)(C)N)C(=O)N[C@@H](CCC(=O)O)C(=O)N[C@@H](Cc1c[nH]cn1)C(=O)N[C@@H](Cc1ccccc1)C(=O)N[C@@H](CCCNC(=N)N)C(=O)N[C@@H](Cc1c[nH]c2ccccc12)C(=O)NCC(=O)N[C@@H](CCCCN)C(=O)N1CCC[C@H]1C(=O)N[C@H](C(=O)NCC(=O)N[C@@H](CCCCN)C(=O)N[C@@H](CCCCN)C(=O)N[C@@H](CCCCN)C(=O)N[C@@H](CCCCN)C(=O)N[C@@H](CCCCN)C(N)=O)C(C)C [[Aib^1, Lys^17,18,19]--ACTH(1-19)-- NH2] (H-[Aib]YSMEHFRWGKPVGKKKKK-NH2) | protracted to almost the same extent as that produced by Cortrosyn-Z | – | – | – | – | – | – | – |
| CSCC[C@H](NC(=O)[C@H](CO)NC(=O)[C@H](Cc1ccc(O)cc1)NC(=O)C(C)(C)N)C(=O)N[C@@H](CCC(=O)O)C(=O)N[C@@H](Cc1c[nH]cn1)C(=O)N[C@@H](Cc1ccccc1)C(=O)N[C@@H](CCCNC(=N)N)C(=O)N[C@@H](Cc1c[nH]c2ccccc12)C(=O)NCC(=O)N[C@@H](CCCCN)C(=O)N1CCC[C@H]1C(=O)N[C@H](C(=O)NCC(=O)N[C@@H](CCCCN)C(=O)N[C@@H](CCCCN)C(=O)N[C@@H](CCCCN)C(=O)N[C@@H](CCCCN)C(=O)N[C@@H](CCCCN)C(=O)N[C@@H](CCCCN)C(N)=O)C(C)C [[Aib^1,Lys^17,18,19,20]-ACTH(1-20)-NH2, Aib--Tyr--Ser--Met--Glu--His--Phe--Arg--Trp--Gly--Lys--Pro--Val--Gly--Lys- -Lys--Lys--Lys--Lys--Lys--NH2] (H-[Aib]YSMEHFRWGKPVGKKKKKK-NH2) | – | 0.15 | 10.7 | 6.3 | – | – | – | – |
| CSCC[C@H](NC(=O)[C@H](CO)NC(=O)[C@H](Cc1ccc(O)cc1)NC(=O)C(C)(C)N)C(=O)N[C@@H](CCC(=O)O)C(=O)N[C@@H](Cc1c[nH]cn1)C(=O)N[C@@H](Cc1ccccc1)C(=O)N[C@@H](CCCNC(=N)N)C(=O)N[C@@H](Cc1c[nH]c2ccccc12)C(=O)NCC(=O)N[C@@H](CCCCN)C(=O)N1CCC[C@H]1C(=O)N[C@H](C(=O)NCC(=O)N[C@@H](CCCCN)C(=O)N[C@@H](CCCCN)C(=O)N[C@@H](CCCCN)C(=O)N[C@@H](CCCCN)C(=O)N[C@@H](CCCCN)C(N)=O)C(C)C [[Aib^1,Lys^17,18,19]-ACTH(1-19)-NH2, Aib--Tyr--Ser--Met--Glu--His--Phe--Arg--Trp--Gly--Lys--Pro--Val--Gly--Lys- -Lys--Lys--Lys--Lys--NH2] (H-[Aib]YSMEHFRWGKPVGKKKKK-NH2) | – | 0.11 | 7.8 | 5.7 | very protracted action | – | – | – |
| CSCC[C@H](NC(=O)[C@H](CO)NC(=O)[C@H](Cc1ccc(O)cc1)NC(=O)C(C)(C)N)C(=O)N[C@@H](CCC(=O)O)C(=O)N[C@@H](Cc1c[nH]cn1)C(=O)N[C@@H](Cc1ccccc1)C(=O)N[C@@H](CCCNC(=N)N)C(=O)N[C@@H](Cc1c[nH]c2ccccc12)C(=O)NCC(=O)N[C@@H](CCCCN)C(=O)N1CCC[C@H]1C(=O)N[C@H](C(=O)NCC(=O)N[C@@H](CCCCN)C(=O)N[C@@H](CCCCN)C(=O)N[C@@H](CCCCN)C(=O)N[C@@H](CCCCN)C(N)=O)C(C)C [[Aib^1,Lys^17,18]-ACTH(1-18)-NH2, [Aib^1,Lys^17,18]--ACTH(1-18)--NH2, reference compound] (H-[Aib]YSMEHFRWGKPVGKKKK-NH2) | – | 0.82 | 9.4 | 9.3 | – | – | – | – |
| CSCC[C@H](NC(=O)[C@H](CO)NC(=O)[C@H](Cc1ccc(O)cc1)NC(=O)C(C)(C)N)C(=O)N[C@@H](CCC(=O)O)C(=O)N[C@@H](Cc1c[nH]cn1)C(=O)N[C@@H](Cc1ccccc1)C(=O)N[C@@H](CCCNC(=N)N)C(=O)N[C@@H](Cc1c[nH]c2ccccc12)C(=O)NCC(=O)N[C@@H](CCCCN)C(=O)N1CCC[C@H]1C(=O)N[C@H](C(=O)NCC(=O)N[C@@H](CCCCN)C(=O)N[C@@H](CCCCN)C(=O)N[C@@H](CCCNC(=N)N)C(=O)N[C@@H](CCCNC(=N)N)C(N)=O)C(C)C [[Aib^1]-ACTH(1-18)-NH2, [Aib^1]--ACTH(1-18)--NH2, reference compound] (H-[Aib]YSMEHFRWGKPVGKKRR-NH2) | – | 1.00 | 9.9 | 4.1 | – | – | – | – |
| GYSMEHFRWGKPVGKKRR-NH2 [[Gly^1]-ACTH(1-18)-NH2, [Gly^1]--ACTH(1-18)--NH2, reference compound] | – | 0.11 | 1.0 | 1.0 | – | very weak | – | – |
| Native ACTH: native corticotropin (ACTH), native hormone used for comparison (SYSMEHFRWGKPVGKKRRPVKVYPNGAEDESAEAFPLEF; Corticotropin; UniProt P01189 138-176, looked up) | – | – | – | – | – | very weak | 4.0 | 1.0 |

From patent US4018754A, “Novel polypeptides having ACTH-like action” (Shionogi & Co., Ltd., priority 1974, dated 1977)
